What all share (type): cell-based
Assay [1] concerns VEGF production in hair papilla cells. Description: VEGF production in hair papilla cells (ELISA of culture supernatant). The note with it: human hair papilla cells, cultured 3 days, vs control. As for the experimental part:
Using a papilla cell growth medium (PCGM) (Toyobo Co., Ltd.), human hair papilla cells (Toyobo Co., Ltd.) were cultured for 4 days on a collagen-coated dish, and seeded on a collagen-coated 48 well plate at a cell density of 1.2×10^4 cells/0.3 mL/well. The cells were cultured for one day in a carbon dioxide incubator (5 volume % carbon dioxide, 37° C.), and used for the evaluation of the VEGF production amount.
For the evaluation of the VEGF production amount, 20 kinds of amino acids were mixed at the composition shown in Table 1, the components other than amino acids were composed as in Dulbecco's modified Eagle medium (DMEM), glucose was added at 1 g/L, and the resulting medium was used as an evaluation medium.
L-citrulline, L-tryptophan, and L-glutamine were respectively dissolved in the evaluation medium to prepare each solution.
In the above-described hair papilla cell culture medium on the collagen-coated plate, the medium was replaced with the evaluation medium, the above-described respective solutions of L-citrulline, L-tryptophan, and L-glutamine were added at a given concentration, and the cells were cultured for 3 days at 37° C., 5 volume % carbon dioxide (n=4 for L-citrulline, L-tryptophan, and L-glutamine at each addition concentration).
(§1) Then, the supernatant of the culture medium was collected, centrifuged at 1500 rpm, and the supernatant was collected and cryopreserved at −30° C.
Similar culture and treatment were performed without adding each solution of L-citrulline, L-tryptophan, and L-glutamine and used as the control.
The concentration of VEGF in the supernatant of the culture was measured by thawing the collected supernatant and using the VEGF Enzyme-Linked ImmunoSorbent Assay (ELISA) kit (Abcam Plc.).
The measurement results were converted to relative values (%) with the VEGF concentration in the control as 100, and shown as mean±standard error in FIGS. 1 to 3.
For orientation: In an ELISA, binding on a coated surface is turned into a signal by an enzyme label.

Assay [2] concerns human hair papilla cells. In words: Proliferation of hair papilla cells, citrulline (Cell Counting kit-8). The note with it: 2 mM, cultured one day, P<0.01, FIG. 5. As for the experimental part: In the same manner as in Experimental Example 1, human hair papilla cells were cultured for 4 days, and seeded on a collagen-coated 96 well plate at a cell density of 2.5×10^3 cells/0.1 mL/well. The cells were cultured for one day in a carbon dioxide incubator (5 volume % carbon dioxide, 37° C.), and used for the evaluation of the proliferation of hair papilla cells. For the evaluation of the proliferation of hair papilla cells, the same evaluation medium as used in Experimental Example 1 was used.
L-citrulline was dissolved in the evaluation medium to prepare a solution.
In the above-mentioned hair papilla cell culture medium on the collagen-coated plate, the medium was replaced with the evaluation medium, the above-mentioned solution of L-citrulline was added to a concentration of 2 mM, and the cells were cultured for one day at 37° C., 5 volume % carbon dioxide (n=7).
Then the Cell Counting kit-8 (DOJINDO LABORATORIES) was added to each well by 10 μL, the plate was placed in a carbon dioxide incubator (5 volume % carbon dioxide, 37° C.) for 2 hr, and the absorbance at 450 nm was measured using a microplate reader.
Similar culture and treatment were performed without adding the solution of L-citrulline and used as the control.
The measurement results were converted to relative values (%) with the absorbance in the control as 100, and shown as mean±standard error in FIG. 5.
On the technique in general: Tetrazolium assays rely on reduction of a dye to a coloured formazan, in cell work by metabolically active cells.

Assay [3] deals with FGF7 production in hair papilla cells. In words: FGF7 production in hair papilla cells (ELISA of culture supernatant). As to conditions: human hair papilla cells, cultured 3 days, vs control, P<0.05 or P<0.01, FIG. 4. As for the experimental part:
In the same manner as in Experimental Example 1, human hair papilla cells were cultured for 4 days, and seeded on a collagen-coated 48 well plate at a cell density of 1.2×10^4 cells/0.3 mL/well. The cells were cultured for one day in a carbon dioxide incubator (5 volume % carbon dioxide, 37° C.), and used for the evaluation of the FGF7 production amount. For the evaluation of the FGF7 production amount, the same evaluation medium as in Experimental Example 1 was used.
L-ornithine was dissolved in the evaluation medium to prepare a solution.
In the above-mentioned hair papilla cell culture medium on the collagen-coated plate, the medium was replaced with the evaluation medium, the above-mentioned solution of L-ornithine was added at a given concentration, and the cells were cultured for 3 days at 37° C., 5 volume % carbon dioxide (n=3 at each addition concentration).
Similar culture and treatment were performed without adding the solution of L-ornithine, and used as the control.
as §1
The concentration of FGF7 in the supernatant of the culture was measured by thawing the collected supernatant and using the FGF7 Enzyme-Linked ImmunoSorbent Assay (ELISA) kit (Abcam Plc.). […]

Assay [4] has as its system human hair papilla cells. Description: Proliferation of hair papilla cells, ornithine (Cell Counting kit-8). As to conditions: cultured one day, P<0.05 or P<0.01, FIG. 6. The method, then: In the same manner as in Experimental Example 1, human hair papilla cells were cultured for 4 days, and seeded on a collagen-coated 96 well plate at a cell density of 2.5×10^3 cells/0.1 mL/well. The cells were cultured for one day in a carbon dioxide incubator (5 volume % carbon dioxide, 37° C.), and used for the evaluation of the proliferation of hair papilla cells. For the evaluation of the proliferation of hair papilla cells, a medium having the same amino acid composition as the evaluation medium used in Experimental Example 1 and other components diluted at a ¼ concentration was used as the evaluation medium.
L-ornithine was dissolved in the above-mentioned evaluation medium to prepare a solution. […]
Then the Cell Counting kit-8 (DOJINDO LABORATORIES) was added to each well by 10 μL, the plate was placed in a carbon dioxide incubator (5 volume % carbon dioxide, 37° C.) for 2 hr, and the absorbance at 450 nm was measured using a microplate reader. […]
The measurement results were converted to relative values (%) with the absorbance in the control as 100, and shown as mean±standard error in FIG. 6.

SMILES strings stand for the structures.

As to `NC(=O)NCCCC(N)C(=O)O` [L-citrulline, 2-amino-5-(carbamoylamino)pentanoic acid], in assay [1] (P<0.01 or P<0.001, FIG. 1), the “addition concentration at which a significant increase in the VEGF production was observed” value was “not less than 4.56 μM”. The “number of hair papilla cells as compared with the control” value in assay [2] is recorded as “significant increase”.

As to `NC(=O)CCC(N)C(=O)O` [L-glutamine, 2-amino-4-carbamoylbutanoic acid], in assay [1] (P<0.01 or P<0.001, FIGS. 2, 3), the “addition concentration at which a significant increase in the VEGF production was observed” value was “not less than 0.44 mM”.

In the case of `N[C@@H](Cc1c[nH]c2ccccc12)C(=O)O` [L-tryptophan, 2-amino-3-(indolyl)propionic acid], the “addition concentration at which a significant increase in the VEGF production was observed” value in assay [1] (P<0.01 or P<0.001, FIGS. 2, 3) is “not less than 0.01 mM”.

Turning to `NCCCC(N)C(=O)O` [L-ornithine, 2,5-diamino pentanoic acid], the “addition concentration at which a significant increase in the FGF7 production amount was observed” value in assay [3] was “not less than 151 μM”. The “number of hair papilla cells as compared with the control” value in assay [4] (756 μM) and in assay [4] (3.7 mM) was “significant increase” in each case.

The values are drawn from patent US20230023463A1, “COMPOSITION FOR PROMOTING HAIR THICKENING, COMPOSITION FOR SUSTAINING GROWTH PHASE IN HAIR CYCLE AND COMPOSITION FOR PROMOTING VEGF PRODUCTION, COMPOSITION FOR PROMOTING TRANSITION FROM RESTING PHASE TO GROWTH PHASE IN HAIR CYCLE AND COMPOSITION FOR PROMOTING FGF7 PRODUCTION, AND COMPOSITION FOR …” (priority 2020, published 2023).
